# Assay results as given in PubChem BioAssay AID602296 (Broad Institute, 2012).
# Records with an inconclusive call do not appear. The source made the active and inactive calls.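 The calls were made as follows: active = fitted activation curve crossing 40% at a concentration no higher than the sample's top valid tested dose; inconclusive = flat fitted curve at 30% to 70% activation, or poor curve fit; inactive = signal decrease, flat curve within 30%, or the rest.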
# System: NIH3T3-HGL HSF-1 response element luciferase, 48 h
# Assay: HSF-1 reporter activators over prolonged exposure, confirmation, cell-based, mouse, luciferase, cherry-pick, dose (AID 602296);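 also: test compounds applied by themselves with no MG132 co-treatment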
row,Compound,AC40
1,O=C(NCC1CCCO1)c1nn2c(C(F)(F)F)cc(-c3cc(Br)cs3)nc2c1Br (stereo unspecified),> 26 µM (inactive)
2,Cc1ccccc1N1CCN(S(=O)(=O)Cc2ccccc2)CC1,> 26 µM (inactive)
3,COc1cccc(CN2CC(C(=O)NCc3ccc(C)o3)CCC2=O)c1 (stereo unspecified),> 26 µM (inactive)
4,C=CCN(C(=O)CCc1ccccc1OC)c1nc(-c2ccc(S(C)(=O)=O)cc2)cs1,> 26 µM (inactive)
5,NC(=O)c1c(NC(=O)Cc2ccccc2)sc2c1CCN(Cc1ccccc1)C2,> 26 µM (inactive)
6,Cc1ccccc1CSc1nsc(N)n1,16.5 µM
7,COc1ccc(NS(=O)(=O)c2cc(NC(=O)c3cnccn3)ccc2N2CCCC2)cc1,> 26 µM (inactive)
8,Nc1nc(SCC(=O)Nc2ccc([N+](=O)[O-])cc2Br)n[nH]1,> 26 µM (inactive)
9,Cc1ccc(S(=O)(=O)CCN2CCN(c3ccccc3)CC2)cc1,> 26 µM (inactive)
10,CC(C)CCN=CC1=C(O)CC(c2ccccc2)CC1=O (stereo unspecified),> 26 µM (inactive)
11,Cc1ccc(Nc2c(N)c(=O)oc3ccccc23)cc1,> 26 µM (inactive)
12,Cc1ccc(C)c(CN2C(=O)COc3ccccc32)c1,> 26 µM (inactive)
13,CNc1nc(SC(C)C(=O)Nc2ccc(Cl)c(Cl)c2)nc(N2CCOCC2)n1 (stereo unspecified),> 26 µM (inactive)
14,CC(C)C(=O)N1CCC(n2nccc2NC(=O)CCOc2ccccc2)CC1,7.78 µM
15,COc1cccc(Sc2ccccc2/C=N/NC(N)=O)c1,> 26 µM (inactive)
16,Cc1cc(-c2nc3ncccc3o2)ccc1NC(=S)NC(=O)C(C)C,7.32 µM
17,O=C(CSc1ccc(Cl)cc1)N1CCN(c2c(Cl)cccc2[N+](=O)[O-])CC1,3.34 µM
18,O=C1NCC2=C1C(c1ccc(Br)cc1)Nc1ccccc1N2 (stereo unspecified),3.58 µM
19,Cn1c(Cn2nnc3ccccc32)nnc1SCC(=O)c1ccccc1F,20.6 µM
20,Cn1c(Cl)cnc1C1CC(=O)c2cc(Cl)ccc2O1 (stereo unspecified),> 26 µM (inactive)
21,CCC(=O)N1CCN(c2ccc(NC(=O)COc3ccc(C)cc3C)cc2)CC1,> 26 µM (inactive)
22,CC1=C(C(=O)N2CCOCC2)C(c2c(C)cc(C)cc2C)NC(=S)N1 (stereo unspecified),> 26 µM (inactive)

row,Compound,AC40
1,COc1cc(/C=N/NC(=S)NC2CC3C=CC2C3)cc(OC)c1OC (stereo unspecified),> 26 µM (inactive)
2,c1ccc(COc2ccccc2CNC2CCCC2)cc1,> 26 µM (inactive)
3,O=C(O)CN1C(=O)/C(=C\c2cc(Br)ccc2OCc2ccc(F)cc2)SC1=S,> 26 µM (inactive)
4,Cn1c(C(=O)OC(C(=O)NC(C)(C)C)c2cccnc2)cc2sccc21 (stereo unspecified),> 26 µM (inactive)
5,COc1ccc(-c2cc(C(=O)NCc3ccco3)c3ccccc3n2)cc1,> 26 µM (inactive)
6,CCOC(=O)/C(=N/Nc1ccc(Cl)cc1)Sc1nnnn1-c1ccc(C)cc1,> 12 µM (inactive)
7,N#Cc1ccsc1NC(=O)CN1CCN(S(=O)(=O)c2ccc3ccccc3c2)CC1,> 26 µM (inactive)
8,Cc1nnc(Sc2nc3c(c(=O)n(C)c(=O)n3C)n2Cc2ccccc2Cl)s1,> 26 µM (inactive)
9,S=C(Nc1ccccc1)Nc1ccc(Cl)cn1,21 µM
10,CCOC(=O)c1c(C)n(-c2ccc(C)cc2)c2c(CC(C)=O)c(Br)c(OC)c(O)c12,> 26 µM (inactive)
11,COC1(OC)C(/C=C/c2ccc(Cl)cc2)C(C#N)(C#N)C1(OC)OC (stereo unspecified),16.9 µM
12,CC(C)[C@H](NC(=O)OC(C)(C)C)c1nnc(SCC(=O)Nc2ccc(Br)cc2)o1,> 26 µM (inactive)
13,COc1cc2nc(CSc3nc(-c4ccc(F)cc4)cs3)[nH]c(=O)c2cc1OC,> 26 µM (inactive)
14,CCOC(=O)C1CCN(C(=O)c2ccc3c(Cl)c4c(nc3c2)CCCC4)CC1,> 26 µM (inactive)
15,O=C(N/N=C/CCc1ccccc1)c1ccccc1,15.5 µM
16,COc1cc2[nH]c(=S)n(Cc3ccco3)c(=O)c2cc1OC,> 26 µM (inactive)
17,CCC1Oc2ccc(C)cc2N(Cc2cccc(C)c2)C1=O (stereo unspecified),13.1 µM
18,COc1ccc(C2/C=C\CN(S(=O)(=O)/C=C/c3ccccc3)[C@H](Cc3ccccc3)C(=O)N2Cc2ccc(F)cc2)cc1 (stereo partly specified),> 26 µM (inactive)
19,CC(C)NC(=O)CN(C(=O)CCC(=O)Nc1nccs1)c1ccc2c(c1)OCO2,> 26 µM (inactive)
20,Cc1cccc(OCC(=O)Nc2cc(C)ccc2O)c1,> 26 µM (inactive)
21,O=C(NCc1ccc(N2CCCC2=O)cc1)Nc1ccccc1,> 26 µM (inactive)
22,O=C1CCC(/C=C/c2ccccc2)=NN1,> 26 µM (inactive)

row,Compound,AC40
1,COc1cc(C2Nc3ccc4ncccc4c3C3=C2C(=O)CCC3)cc(OC)c1OC (stereo unspecified),5.44 µM
2,CC12CCC3C(CC=C4CC(O)CCC43C)C1C/C(=C\N1CCCC1)C2=O (stereo unspecified),> 26 µM (inactive)
3,S=c1sc2c(Cl)ncnc2n1-c1ccccc1,> 12 µM (inactive)
4,CCNC(=S)N/N=C/c1ccc(-c2ccccc2)o1,> 26 µM (inactive)
5,COc1ccc(OCc2nnnn2-c2ccccc2)cc1,25.7 µM
6,CCN1CC(CN(C)Cc2nc(COc3ccccc3)no2)CC1=O (stereo unspecified),> 26 µM (inactive)
7,Cc1ccc(-n2cc(CNCCN3CCOC3=O)c(-c3cccc(C)c3)n2)cc1,17.4 µM
8,Cc1ccccc1/[N+]([O-])=C/c1cccs1,> 26 µM (inactive)
9,Brc1cnc2nc(SC/C=C/c3ccccc3)[nH]c2c1,20.8 µM
10,Cc1ccc(-c2csc(NC(=O)c3cccc([N+](=O)[O-])c3)n2)cc1,> 26 µM (inactive)
11,COc1ccc(-c2c(C)c3cc(O)ccc3oc2=O)cc1OC,> 26 µM (inactive)
12,COc1c(Br)cc(Br)cc1C(=O)O,> 26 µM (inactive)
13,O=[N+]([O-])c1ccc(Sc2ccccc2)nc1,> 26 µM (inactive)
14,COc1ccc(-c2nc3scc(-c4ccccc4)n3n2)cc1,3.34 µM
15,COc1ccc(Cc2nnc(SCC(=O)Nc3ccc(N4CCOCC4)cc3)o2)cc1,> 26 µM (inactive)
16,CC(C)(C)N(NS(=O)(=O)c1ccc(F)cc1)c1ccccc1,> 26 µM (inactive)
17,O=c1c2ccccc2[nH]c(=S)n1CCC1=CCCCC1,11.3 µM
18,CC1(c2cccs2)CC(c2cccs2)=C(C#N)C(=O)N1 (stereo unspecified),> 26 µM (inactive)
19,NC(=O)CSC1=N/C(=C\c2ccco2)C(=O)N1c1ccc(OC(F)F)cc1,8.11 µM
20,Cc1cccc(C)c1NC(=O)COC(=O)c1cccc2c1C(=O)c1ccccc1C2=O,> 26 µM (inactive)
21,C=CCn1c(SCC(=O)Nc2cc(NC(C)=O)ccc2OC)nnc1-c1cccnc1,> 26 µM (inactive)
22,CSC(=NC#N)N1CCN(c2ccc(Cl)cc2)CC1,25.3 µM

row,Compound,AC40
1,CC(/C=C/c1cccs1)=C\C(=O)O,> 26 µM (inactive)
2,CCOC(=O)c1cnc2ccc(C)cc2c1Sc1ccc(F)cc1,> 12 µM (inactive)
3,Cc1ccc(N2C(=O)SC(N(CC(=O)O)c3ccc(C)cc3)C2=O)cc1 (stereo unspecified),9.53 µM
4,COc1ccc(C2C3=C(CCCC3=O)N(CC(=O)O)C3=C2C(=O)CCC3)cc1Cl,> 26 µM (inactive)
5,CCN(C(=O)c1cc2c(=O)[nH]c3ccc(C)cc3c2s1)c1ccccc1F,> 26 µM (inactive)
6,COc1ccc(CCNc2ncnc3c2c(C)c(C)n3CCO)cc1OC,> 26 µM (inactive)
7,C/C(=N\OC(=O)c1ccc(F)cc1)c1ccc(F)c(F)c1,24.7 µM
8,CCCc1nc(SCC(=O)Nc2cc(C)on2)c2ccccc2n1,> 26 µM (inactive)
9,COc1cc2c(cc1NC(=O)COC(=O)[C@@H](NS(=O)(=O)c1ccccc1)C(C)C)oc1ccccc12,> 26 µM (inactive)
10,Nc1ncnc2c1CCC2,> 26 µM (inactive)
11,O=c1[nH]c2c(s1)C=Nc1ccccc1N2,4.98 µM
12,CC1=Nc2cc(C(=O)O)ccc2Sc2c(C)ccc(C)c21,> 26 µM (inactive)
13,OC(CNCc1cccc(Cl)c1)c1ccccc1 (stereo unspecified),24.8 µM
14,CN(NC1OC(=O)c2ccccc21)c1ncc(Cl)cc1C(F)(F)F (stereo unspecified),> 26 µM (inactive)
15,Cc1onc(-c2ccccc2)c1C(=O)OCc1nnc(-c2ccccc2)o1,> 26 µM (inactive)
16,CNC(=O)C1CC(=O)N(c2ccc(OCC(=O)N3CCCC3)cc2)C1 (stereo unspecified),> 26 µM (inactive)
17,CC1(C)CC(=O)C(=Cc2cn(-c3ccccc3)nc2-c2ccccc2)C(=O)C1,14 µM
18,COc1ccc(-n2cnnc2SCC(=O)N(C)C2CCS(=O)(=O)C2)cc1 (stereo unspecified),> 26 µM (inactive)
19,CCOCCCNC(=S)Nc1ccc2nc(N3CCOCC3)cc(C)c2c1,> 26 µM (inactive)
20,CC(C)(C)NC(=O)c1cccc(NC(=O)CSc2ccc(Cl)cc2)c1,> 26 µM (inactive)
21,CC(C)(C)C(=O)NCC12C=CC(O1)C1C(=O)N(c3ccccc3)C(=O)C12 (stereo unspecified),> 26 µM (inactive)
22,N#Cc1ccc(OCCN2CCc3ccccc3C2)cc1,8.01 µM

row,Compound,AC40
1,Cc1nn(C(C)C(=O)NCCCN2CCCCC2C)c(=O)c2c1sc1ccccc12 (stereo unspecified),> 26 µM (inactive)
2,Cc1cc(C)cc(Oc2ccccc2/C=C\C(=O)O)c1,> 26 µM (inactive)
3,O=C(CSc1nccn(-c2ccc(F)c(F)c2)c1=O)NC1CCCC1,> 26 µM (inactive)
4,CC1(C)c2cc(O)ccc2OC1N1CCOCC1 (stereo unspecified),> 26 µM (inactive)
5,O=C(NCc1ccco1)C1CC(O)CN1C(=O)Nc1ccccc1 (stereo unspecified),> 26 µM (inactive)
6,Cc1ccc2cccnc2c1NC(=S)NC(=O)c1ccccc1,> 26 µM (inactive)
7,Cc1nn(C(CC(=O)O)C(=O)O)c(C)c1Br (stereo unspecified),> 26 µM (inactive)
8,Cc1noc2ncnc(Sc3ccc(Br)cc3)c12,> 26 µM (inactive)
9,CC(C)NCC(O)COCc1ccc(Cl)cc1 (stereo unspecified),> 26 µM (inactive)
10,COc1cccc(CNC(=O)Cn2nc(C)c([N+](=O)[O-])c2C)c1,> 26 µM (inactive)
11,CC(=O)c1cccc(N(CC(=O)Nc2ccc(F)cc2F)S(C)(=O)=O)c1,5.46 µM
12,C=CCN(C(=O)CCC(=O)Nc1cc(C)on1)C(C(=O)NC(C)(C)C)c1cccc(OC)c1OC (stereo unspecified),> 26 µM (inactive)
13,Cc1cc(C)n2nc(N)c(N=Nc3cccc(Cl)c3)c2n1,> 26 µM (inactive)
14,CCOC(=O)C1=NN(C(=O)c2ccccc2)C(O)(c2ccc(C)cc2)C1 (stereo unspecified),8.91 µM
15,C/C(=N\NC(=O)c1cccc(N/N=C(\C)c2cc(O)ccc2O)c1)c1cc(O)ccc1O,> 12 µM (inactive)
16,O=C(CCS(=O)(=O)c1ccccc1)Nc1ccccn1,> 26 µM (inactive)
17,CCOC(=O)c1c(C)c(C(=O)Nc2ccc3c(c2)OCO3)c(C)n1C,24.1 µM
18,Cc1ccc2cccc(NC(=O)C(F)(F)F)c2n1,> 26 µM (inactive)
